Results published in US9731013B2 (UNIVERSITY OF FLORIDA RESEARCH FOUNDATION, INC., priority 2008, dated 2017).

How the values were obtained:
[1] = Radiofrequency (RF) heating of samples dissolved or suspended in water; assay type: physicochemical; details: RF 13.56 MHz, 500 W, 250 μL sample in water; for temperature rise (in words): up to five minutes
Protocol: FIG. 1 is a plot of the temperature rise of samples comprising functionalized fullerenes according to embodiments of the invention that are dissolved or suspended in water during irradiation with RF at 13.56 MHz and 500 W RF power over a period of five minutes.
FIG. 2 is a bar graph of the temperature rise of samples comprising functionalized fullerenes according to embodiments of the invention that are dissolved or suspended in water after irradiation with RF at 13.56 MHz and 500 W RF power for 30 seconds (left bars) and 60 seconds (right bars).
Heating of a volume of water by irradiation of fullerene comprising compounds was carried out using a radiofrequency (RF) heating system (Therm Med, LLC, Erie, Pa.) operating at 13.56 MHz and 500 W RF power. A volume of 250 μL of sample dissolved or suspended in water was pipetted into a cylindrical quartz cuvette for RF exposure. The cuvette was placed on a thin horizontal Teflon sample holder positioned at a depth of 7.6 cm from RF generator.

[2] = Water solubility observation of samples; assay type: physicochemical

Substance | temperature rise in 5 minutes ([1]; 5 minutes) [°C] | water solubility (in words) [2] | temperature rise (in words) [1]
Gadofullerenes (Gd@C82) [GdF] | 10 | not water soluble | 
Polyhydroxy fullerenes [PBU] |  |  | Temperature rise was observed
Pristine C60 [FN, reference compound] |  | not water soluble | did not show a temperature rise
